# Assay results as given in US9265253B2, “Use of macrocyclic picolinamides as fungicides” (DOW AGROSCIENCES LLC, priority 2013, dated 2016).
# Columns and labels:
# Assay type in all cases: in vivo
# [1] = tested on: Leptosphaeria nodorum; test: Wheat Glume Blotch (LEPTNO) disease control; conditions: 1 Day Protectant; for pest or weed control at 100 ppm: Parastagonospora nodorum, topical, 24 h, read-out: Disease Control LEPTNO 1 DP
# Description: Technical grades of materials were dissolved in acetone, which were then mixed with nine volumes of water containing 110 ppm Triton X-100. The fungicide solutions were applied onto wheat seedlings using an automated booth sprayer to run-off. All sprayed plants were allowed to air dry prior to further handling. All fungicides were evaluated using the aforementioned method for their activity vs. all target diseases. Wheat leaf blotch and brown rust activity were also evaluated using track spray applications, in which case the fungicides were formulated as EC formulations, containing 0.1% Trycol 5941 in the spray solutions. Wheat plants (variety Yuma) were grown from seed in a greenhouse in 50% mineral soil/50% soil-less Metro mix until the first leaf was fully emerged, with 7-10 seedlings per pot. These plants were inoculated with an aqueous spore suspension of Septoria tritici either prior to or after fungicide treatments. After inoculation the plants were kept in 100% relative humidity (one day in a dark dew chamber followed by two to three days in a lighted dew chamber at 20° C.) to permit spores to germinate and infect the leaf. The plants were then transferred to a greenhouse set at 20° C. for disease to develop. When disease symptoms were fully expressed on the 1st leaves of untreated plants, infection levels were assessed on a scale of 0 to 100 percent disease severity. Percent disease control was calculated using the ratio of disease severity on treated plants relative to untreated plants. Wheat plants (variety Yuma) were grown from seed in a greenhouse in 50% mineral soil/50% soil-less Metro mix until the first leaf was fully emerged, with 7-10 seedlings per pot. These plants were inoculated with an aqueous spore suspension of Leptosphaeria nodorum 24 hr after fungicide treatments. After inoculation the plants were kept in 100% relative humidity (one day in a dark dew chamber followed by two days in a lighted dew chamber at 20° C.) to permit spores to germinate and infect the leaf. The plants were then transferred to a greenhouse set at 20° C. for disease to develop. Fungicide formulation, application and disease assessment followed the procedures as described in the Example A.
# [2] = tested on: Venturia inaequalis; test: Apple Scab (VENTIN) disease control; conditions: 1 Day Protectant; for pest or weed control at 100 ppm: Venturia inaequalis, topical, 24 h, read-out: Disease Control VENTIN 1 DP
# Description: Technical grades of materials were dissolved in acetone, which were then mixed with nine volumes of water containing 110 ppm Triton X-100. The fungicide solutions were applied onto wheat seedlings using an automated booth sprayer to run-off. All sprayed plants were allowed to air dry prior to further handling. All fungicides were evaluated using the aforementioned method for their activity vs. all target diseases. Wheat leaf blotch and brown rust activity were also evaluated using track spray applications, in which case the fungicides were formulated as EC formulations, containing 0.1% Trycol 5941 in the spray solutions. Wheat plants (variety Yuma) were grown from seed in a greenhouse in 50% mineral soil/50% soil-less Metro mix until the first leaf was fully emerged, with 7-10 seedlings per pot. These plants were inoculated with an aqueous spore suspension of Septoria tritici either prior to or after fungicide treatments. After inoculation the plants were kept in 100% relative humidity (one day in a dark dew chamber followed by two to three days in a lighted dew chamber at 20° C.) to permit spores to germinate and infect the leaf. The plants were then transferred to a greenhouse set at 20° C. for disease to develop. When disease symptoms were fully expressed on the 1st leaves of untreated plants, infection levels were assessed on a scale of 0 to 100 percent disease severity. Percent disease control was calculated using the ratio of disease severity on treated plants relative to untreated plants. Apple seedlings (variety McIntosh) were grown in soil-less Metro mix, with one plant per pot. Seedlings with two expanding young leaves at the top (older leaves at bottom of the plants were trimmed) were used in the test. Plants were inoculated with a spore suspension of Venturia inaequalis 24 hr after fungicide treatment and kept in a 22° C. dew chamber with 100% RH for 48 hr, and then moved to a greenhouse set at 20° C. for disease to develop. Fungicide formulation, application and disease assessment on the sprayed leaves followed the procedures as described in the Example A.
# [3] = tested on: Erysiphe cichoracearum; test: Powdery Mildew of Cucumber (ERYSCI) disease control; conditions: 1 Day Protectant; for pest or weed control at 100 ppm: Golovinomyces cichoracearum, topical, 24 h, read-out: Disease Control ERYSCI 1 DP
# Description: Technical grades of materials were dissolved in acetone, which were then mixed with nine volumes of water containing 110 ppm Triton X-100. The fungicide solutions were applied onto wheat seedlings using an automated booth sprayer to run-off. All sprayed plants were allowed to air dry prior to further handling. All fungicides were evaluated using the aforementioned method for their activity vs. all target diseases. Wheat leaf blotch and brown rust activity were also evaluated using track spray applications, in which case the fungicides were formulated as EC formulations, containing 0.1% Trycol 5941 in the spray solutions. Wheat plants (variety Yuma) were grown from seed in a greenhouse in 50% mineral soil/50% soil-less Metro mix until the first leaf was fully emerged, with 7-10 seedlings per pot. These plants were inoculated with an aqueous spore suspension of Septoria tritici either prior to or after fungicide treatments. After inoculation the plants were kept in 100% relative humidity (one day in a dark dew chamber followed by two to three days in a lighted dew chamber at 20° C.) to permit spores to germinate and infect the leaf. The plants were then transferred to a greenhouse set at 20° C. for disease to develop. When disease symptoms were fully expressed on the 1st leaves of untreated plants, infection levels were assessed on a scale of 0 to 100 percent disease severity. Percent disease control was calculated using the ratio of disease severity on treated plants relative to untreated plants. Cucumber seedlings (variety Bush Pickle) were grown in soil-less Metro mix, with one plant per pot, and used in the test when 12 to 14 days old. Plants were inoculated with a spore suspension 24 hr following fungicide treatments. After inoculation the plants remained in the greenhouse set at 20° C. until disease was fully expressed. Fungicide formulation, application and disease assessment on the sprayed leaves followed the procedures as described in the Example A.
# [4] = tested on: Cercospora beticola; test: Leaf Spot of Sugar Beets (CERCBE) disease control; conditions: 1 Day Protectant, sugar beet; for pest or weed control at 100 ppm: Cercospora beticola, topical, 24 h, read-out: Disease Control CERCBE 1 DP
# Description: Technical grades of materials were dissolved in acetone, which were then mixed with nine volumes of water containing 110 ppm Triton X-100. The fungicide solutions were applied onto wheat seedlings using an automated booth sprayer to run-off. All sprayed plants were allowed to air dry prior to further handling. All fungicides were evaluated using the aforementioned method for their activity vs. all target diseases. Wheat leaf blotch and brown rust activity were also evaluated using track spray applications, in which case the fungicides were formulated as EC formulations, containing 0.1% Trycol 5941 in the spray solutions. Wheat plants (variety Yuma) were grown from seed in a greenhouse in 50% mineral soil/50% soil-less Metro mix until the first leaf was fully emerged, with 7-10 seedlings per pot. These plants were inoculated with an aqueous spore suspension of Septoria tritici either prior to or after fungicide treatments. After inoculation the plants were kept in 100% relative humidity (one day in a dark dew chamber followed by two to three days in a lighted dew chamber at 20° C.) to permit spores to germinate and infect the leaf. The plants were then transferred to a greenhouse set at 20° C. for disease to develop. When disease symptoms were fully expressed on the 1st leaves of untreated plants, infection levels were assessed on a scale of 0 to 100 percent disease severity. Percent disease control was calculated using the ratio of disease severity on treated plants relative to untreated plants. Sugar beet plants (variety HH88) were grown in soil-less Metro mix and trimmed regularly to maintain a uniform plant size prior to test. Plants were inoculated with a spore suspension 24 hr after fungicide treatments. Inoculated plants were kept in a dew chamber at 22° C. for 48 hr then incubated in a greenhouse set at 24° C. under a clear plastic hood with bottom ventilation until disease symptoms were fully expressed. Fungicide formulation, application and disease assessment on the sprayed leaves followed the procedures as described in the Example A.
Compound,pest or weed control at 100 ppm [1] [%],pest or weed control at 100 ppm [2] [%],pest or weed control at 100 ppm [3] [%],pest or weed control at 100 ppm [4] [%],Disease Control LEPTNO 1 DP ([1]; 100 ppm),Disease Control VENTIN 1 DP ([2]; 100 ppm),Disease Control ERYSCI 1 DP ([3]; 100 ppm),Disease Control CERCBE 1 DP ([4]; 100 ppm)
COc1ccnc(C(=O)N[C@H]2CCC[C@H](Cc3ccc(F)cc3F)[C@@H](OCC(C)C)[C@H](C)OC2=O)c1OCOC(C)=O [Compound F145],80 to 100,80 to 100,80 to 100,80 to 100,,,,
COCC[C@H]1CCC[C@H](NC(=O)c2nccc(OC)c2OC(C)=O)C(=O)O[C@@H](C)[C@@H]1Oc1ccccc1 [Compound F78],80 to 100,0 to 80,0 to 80,80 to 100,,,,
COc1ccnc(C(=O)N[C@H]2CCC[C@H](Cc3ccc(F)cc3)[C@@H](OCC3CC3)[C@H](C)OC2=O)c1OC(C)=O [Compound F67],80 to 100,0 to 80,0 to 80,80 to 100,,,,
CCCO[C@@H]1[C@@H](Cc2ccccc2)CCC[C@H](NC(=O)c2nccc(OC)c2OCOC(C)=O)C(=O)O[C@H]1C [Compound F109],80 to 100,80 to 100,80 to 100,80 to 100,,,,
COCC[C@H]1CCC[C@H](NC(=O)c2nccc(OC)c2OCOC(C)=O)C(=O)O[C@@H](C)[C@@H]1Oc1ccccc1 [Compound F130],80 to 100,0 to 80,0 to 80,0 to 80,,,,
COc1ccnc(C(=O)N[C@H]2CCC[C@H](Cc3ccccc3)[C@@H](OCC(C)C)[C@H](C)OC2=O)c1OCOC(C)=O [Compound F106],80 to 100,0 to 80,80 to 100,80 to 100,,,,
CCCO[C@@H]1[C@@H](CCC(C)C)CCC[C@H](NC(=O)c2nccc(OC)c2OCOC(=O)COCC)C(=O)O[C@H]1C [Compound F161],80 to 100,80 to 100,80 to 100,80 to 100,,,,
CCCO[C@@H]1[C@@H](CCC(C)C)CCC[C@H](NC(=O)c2nccc(OC)c2OC(C)=O)C(=O)O[C@H]1C [Compound F64],80 to 100,0 to 80,80 to 100,80 to 100,,,,
CCOCC(=O)OCOc1c(OC)ccnc1C(=O)N[C@H]1CCC[C@H](Cc2ccccc2)[C@@H](OCC(C)C)[C@H](C)OC1=O [Compound F172],80 to 100,0 to 80,80 to 100,80 to 100,,,,
CCOCC(=O)OCOc1c(OC)ccnc1C(=O)N[C@H]1CCC[C@H](Cc2ccc(F)cc2F)[C@@H](OC(=O)c2ccco2)[C@H](C)OC1=O [Compound F193],80 to 100,80 to 100,,80 to 100,,,,
CCOCC(=O)OCOc1c(OC)ccnc1C(=O)N[C@H]1CCC[C@H](Cc2ccc(F)cc2)[C@@H](OCC2CC2)[C@H](C)OC1=O [Compound F164],80 to 100,80 to 100,80 to 100,80 to 100,,,,
COc1ccnc(C(=O)N[C@H]2CCC[C@H](Cc3ccc(F)cc3)[C@@H](OCC3CC3)[C@H](C)OC2=O)c1OCOC(C)=O [Compound F98],,,,,A (80-100),B (More than 0-Less than 80),A (80-100),A (80-100)
COc1ccnc(C(=O)N[C@H]2CCC[C@H](CC3CCCC3)[C@@H](OCC3CC3)[C@H](C)OC2=O)c1OCOC(C)=O [Compound F117],80 to 100,80 to 100,80 to 100,80 to 100,,,,
COc1ccnc(C(=O)N[C@H]2CCC[C@H](Cc3ccc(F)cc3F)[C@@H](OC(=O)c3ccco3)[C@H](C)OC2=O)c1OCOC(C)=O [Compound F144],80 to 100,80 to 100,0 to 80,0 to 80,,,,
COc1ccnc(C(=O)N[C@H]2CCC[C@H](Cc3ccccc3)[C@@H](Oc3ccccc3)[C@H](C)OC2=O)c1OCOC(C)=O [Compound F108],80 to 100,0 to 80,,80 to 100,,,,
COc1ccnc(C(=O)N[C@H]2CCC[C@H](Cc3ccccc3)[C@@H](OCC(C)C)[C@H](C)OC2=O)c1OC(C)=O [Compound F70],80 to 100,0 to 80,80 to 100,80 to 100,,,,
COc1ccnc(C(=O)N[C@H]2CCC[C@H](Cc3ccc(F)cc3)[C@@H](OCC3CC3)[C@H](C)OC2=O)c1OCOC(C)=O [Compound F96],80 to 100,0 to 80,80 to 100,80 to 100,,,,
COc1ccnc(C(=O)N[C@H]2CCC[C@H](Cc3ccc(F)cc3F)[C@@H](OC(=O)c3ccco3)[C@H](C)OC2=O)c1OCOC(=O)C(C)C [Compound F157],80 to 100,0 to 80,,80 to 100,,,,
